Tests used:
[1] = for weight gain (% change from baseline weight): total sample, European ancestry subjects with schizophrenia or schizoaffective disorder, by antipsychotic, mean ± SD
Protocol: Our sample comprised 66 European ancestry subjects aged 18-60 years with schizophrenia or schizoaffective disorder according to Diagnostic and Statistical Manual of Mental Disorders, Third Edition, Revised, or Fourth Edition (DSM-IIIR or DSM-IV) criteria.
Patients with a history of treatment refractory schizophrenia or schizoaffective disorder, or intolerance to typical antipsychotics, were treated with clozapine for 6 weeks and assessed for response and weight gain. These patients had never received a second generation antipsychotic prior to enrollment in the study, and underwent a 7-14 day washout period where they received no antipsychotic medication prior to receiving clozapine.
All analyses were done using R version 2.15.1 statistical software (R Core Team, 2012), with the rms package. Categorical variables were compared across study centres using Pearson chi-square test and continuous variables were compared using ANOVA, unless the assumptions of these tests were violated in which case Fisher's exact test and the Kruskal-Wallis test were used. Linear regression was used to test for differences in weight gain (% change from baseline weight) between genotypic groups using additive genotypic model with adjustment for relevant covariates.

TSPO = target: T1, TSPO (Mus musculus, UniProt P50637); details: high-fat diet induced obese mice; cited from earlier work
T1 construct: host or cells: high-fat diet induced obese mice (in vivo)

[2] = adjunct treatment, human studies; cited from earlier work
GLP-1 = details: rat models; effects seem to occur after a longer treatment period; cited from earlier work
[3] = total sample N=128, patients treated with clozapine, risperidone, olanzapine or haloperidol
[4] = Antipsychotic-induced weight change, orexin receptor (HCRTR1/HCRTR2) SNP association study; type: in vivo, human; details: Sample HYM n = 74, all on clozapine, 6 weeks
Source text: Written informed consent was obtained from all participants. […] Exclusion criteria for these studies included pregnancy, organic brain disorder, severe head injuries, previous medical conditions which required treatment and were not stable (Hepatitis C, HIV, Thyroid disorder or diabetes mellitus), substance dependence, clinically relevant mental retardation and severe personality disorder.
Genomic DNA was extracted from blood samples using the high-salt method (Lahiri and Nurnberger 1991). […] A total of 5 tagSNPs covering a 20 kb region including HCRTR1 (˜9.6 kb) and 28 tagSNPs covering 120 kb including HCRTR2 (˜108 kb) were included in this study.
Analysis of covariance (ANCOVA) was used to test association between genotype and weight change (%) from baseline as the dependent variable, genotypes as fixed factor and, baseline weight and duration of treatment as covariates. Corrections for multiple tests were calculated using Single Nucleotide Polymorphism Spectral Decomposition (SNPSpD, (Nyholt 2004)). Power calculations were performed using Quanto 1.2.4 (Gauderman and Morrison 2006). Assuming a minor allele frequency of 0.25 and a sample size of n=130, we had more than 80% power to detect a mean difference of 3.6% between carriers and non-carriers of the risk genotype in an additive or dominant model.

SMILES: O=C(CCCN1CCC(O)(c2ccc(Cl)cc2)CC1)c1ccc(F)cc1 [haloperidol]
- weight gain (% change from baseline weight) [1]: −4.17%±15.2

SMILES: CCC(C)N(C)C(=O)c1cc2ccccc2c(-c2ccccc2Cl)n1 (centres unmarked) [PK1195]
- lipid accumulation in the liver, free and LDL cholesterol, and blood glucose levels (TSPO): significantly lowered

SMILES: CC(=O)[C@H]1CC[C@H]2[C@@H]3CC=C4C[C@@H](O)CC[C@]4(C)[C@H]3CC[C@]12C [pregnenolone]
- symptoms of schizophrenia [2]: improves symptoms of schizophrenia

SMILES: OCCOCCN1CCN(C2=Nc3ccccc3Sc3ccccc32)CC1 [quetiapine]
- GLP-1 levels (GLP-1): decrease GLP-1 levels

SMILES: CN1CCN(C2=Nc3cc(Cl)ccc3Nc3ccccc32)CC1 [clozapine]
- weight gain [3]: highest weight gain
- Weight change ± SD (%) ([1]; Sample HYM n = 54, all on clozapine, 6 weeks): 3.84 ± 5.8%
- weight gain (% change from baseline weight) [1]: 3.99%±5.8
- Weight gain <7%, n (%) [4]: 47 (63.5) n (%)
- Weight gain ≥7%, n (%) [4]: 27 (36.5) n (%)
- Weight change ([4]; mean ± SD): 3.76 ± 4.4 kg
- Weight change (%) ([4]; mean ± SD): 5.35 ± 6.3%

Reference: patent US10662475B2, “Compositions and methods for the treatment and prevention of antipsychotic medication-induced weight gain” (Centre for Addiction and Mental Health, priority 2014, dated 2020)
